The values that follow come from article PMC5983288, “The Maxi-K (BK) Channel Antagonist Penitrem A as a Novel Breast Cancer-Targeted Therapeutic” (Marine Drugs, 2018).

In one test the test system is MDA-MB-231 cells. The test can be described thus: MTT cell viability assay, MDA-MB-231. It counts as cell-based, human. Particulars: MDA-MB-231, MTT, 48 h. The method, then:
(§1) Penitrems were dissolved in dimethyl sulfoxide (DMSO) to provide a final 25 mM stock solution. Proper media were used to prepare penitrems at their final tested doses for each assay. […] The effects of penitrems 1–3 on the proliferation and growth of multiple BC cell lines were evaluated using MTT assay. MDA-MB-231, BT-474, and SK-BR-3 BC cells (ATCC, Manassas, VA, USA) were initially seeded at 1 × 10^4 cells/well (6 replicates/group) in 96-well plates in RPMI-1640 media containing 10% FBS, and allowed to attach overnight. The next day, cells were washed with PBS, divided into different treatment groups, and then given various concentrations of tested penitrems in 0.5% FBS containing media. Viable cell number was calculated after 48 h using the MTT assay.
(§2) To evaluate the effect of penitrems on growth of the human neuronal Schwann CRL 2765 (ATCC, Manassas, VA, USA), cells were plated at a density of 1 × 10^4 cell per well (6-wells/group) in 96-well culture plates using the ATCC-recommended media (Dulbecco’s Modified Eagle’s Medium, DMEM) and allowed to adhere overnight for growth studies, after which each treatment was added, and cells were maintained for 48 h. Similarly, the non-tumorigenic mammary epithelial MCF-12A cells were plated in DMEM/F12 supplemented with 5% horse serum, […], 20 ng/mL EGF, 100 U/mL penicillin, 0.1 mg/mL streptomycin, and […]. Next day, cells were divided into different groups and fed serum-free DMEM media supplemented with experimental treatments or vehicle-treated control media. Viable cell number was determined using the MTT colorimetric assay. The absorbance was measured at λ570 nm on a BioTek Synergy2 microplate reader (BioTek, Winooski, VT, USA). The number of cells per well was calculated against a standard curve prepared at the start of the experiment. The IC50 value for each tested sample was calculated by non-linear regression of log concentration versus the % survival, implemented in GraphPad® PRISM version 5.0 (Graph Pad Software, Inc., La Jolla, CA, USA).
(In general: Formazan colour is commonly taken as a measure of viable cells.)

The subject of test [1] is BK channel subunits α-1 (KCNMA1). Put plainly: Western blot, BK channel expression in BC cells. Particulars: MDA-MB-231, BT-474, SK-BR-3; 10 µM treatments; vs control. It counts as cell-based, human. The method, then: (§3) MDA-MB-231, BT-474, SK-BR-3, Schwann CRL-2765, and MCF-12A cells, were plated at a density of 1 × 10^6 cells/100 mm culture plates. MDA-MB-231, BT-474, and SK-BR-3 were plated in RPMI-1640 media supplemented with 10% FBS, Schwann cells CRL-2765 were plated in DMEM media supplemented with 10% FBS [11], and MCF-12A cells were plated in DMEM/F12 supplemented with ingredients described earlier. Cells were allowed to adhere overnight, then washed twice with PBS, and starved in control or treatment in serum-free medium containing 0.5% FBS for 48 h to synchronize the cells in G1 phase. Afterwards, cells were treated with tested penitrems in serum-free defined media for 24 h. At the end of treatment periods, cells were lysed in RIPA buffer (Qiagen Sciences Inc., Valencia, CA, USA). Protein concentration was determined by the BCA assay (Bio-Rad, Hercules, CA, USA). Equivalent amounts of protein (50 µg) were electrophoresed on SDS-polyacrylamide gels. The gels were then electroblotted onto PVDF membranes. These PVDF membranes were then blocked with 2% BSA in 10 mM Tris-HCl containing 50 mM NaCl and 0.1% Tween 20, pH 7.4 (TBST), and then incubated with specific primary antibodies overnight at 4 °C. […] Western blot quantification analysis was done using Image Lab ^TM Software (Bio-Rad, Hercules, CA, USA) for total protein normalization.
A general note: Immunoblotting shows a protein as a band on a membrane.

For test [2], the system named is human neuronal Schwann cells CRL-2765. Put plainly: MTT cell viability assay, Schwann CRL-2765. The settings on record: CRL-2765, MTT, 48 h. Type of test: cell-based. The method, then: as §1, §2
The subject of another test is SK-BR-3 cells. Put plainly: MTT cell viability assay, SK-BR-3. Type of test: cell-based, human. The settings on record: SK-BR-3, MTT, 48 h. The method, then: as §1, §2
Another test concerns TNF-α. Put plainly: Western blot, TNF-α levels in BC cells. It counts as cell-based, human. Particulars: MDA-MB-231, BT-474, SK-BR-3; 10 µM treatments; vs control. The method, then:
as §3

The next test relates to BT-474 cells. Put plainly: cells. It counts as cell-based, human. The method, then: Penitrems were dissolved in dimethyl sulfoxide (DMSO) to provide a final 25 mM stock solution. Proper media were used to prepare penitrems at their final tested doses for each assay. […] The effects of penitrems 1–3 on the proliferation and growth of multiple BC cell lines were evaluated using MTT assay. […] The next day, cells were washed with PBS, divided into different treatment groups, and then given various concentrations of tested penitrems in 0.5% FBS containing media. Viable cell number was calculated after 48 h using the MTT assay.
as §2, with “Similarly,” for “To evaluate the effect of penitrems on growth of the human neuronal Schwann CRL 2765 (ATCC, Manassas, VA, USA), cells were plated at a density of 1 × 10^4 cell per well (6-wells/group) in 96-well culture plates using the ATCC-recommended media (Dulbecco’s Modified Eagle’s Medium, DMEM) and allowed to adhere overnight for growth studies, after which each treatment was added, and cells were maintained for 48 h. Similarly,”

Test [3] relates to MCF-12A cells (non-tumorigenic human mammary epithelial cells). The test can be described thus: MTT cell viability assay, MCF-12A. It counts as cell-based. The settings on record: 48 h. The method, then:
as §1, §2

Test [4] has as its system BK channel subunits α-1 (KCNMA1). The test can be described thus: Immunocytochemical fluorescence staining of KCNMA1. Type of test: cell-based, human. Particulars: MDA-MB-231 (9.8 µM) and BT-474 (10.3 µM), 24 h, vs vehicle-treated controls. The method, then:
Immunocytochemical fluorescent studies were conducted by growing MDA-MB-231 and BT-474 cells mammary cancer cells on 8-chamber culture slides (Becton Dickinson and Company, Franklin Lakes, NJ, USA) at a density of 2 × 10^4 cells/chamber (2 replicates/group), and allowed to attach overnight in complete serum media supplemented with 10% FBS. […] At the end of experiment, cells were washed with pre-cooled PBS, and fixed with acetone, pre-cooled to −20 °C, for 2 min. Fixed cells were then washed with PBS, and blocked with 2% BSA in 10 mM Tris-HCl containing 50 mM NaCl and 0.1% Tween 20, pH 7.4 (TBST) for 1 h at rt. Cells were then incubated with specific primary antibody for BK channel KCNMA1 (1:300) overnight at 4 °C in 2% BSA-TBST. At the end of incubation time, cells were washed five times with pre-cooled PBS, followed by incubation with Alexa-Fluor 594-conjugated secondary antibody (1:5000) in 2% BSA-TBST for 1 h at rt. After final washing for five times with PBS, cells were embedded in Vectashield Mounting Medium with DAPI (Vector Laboratories Inc., Burlingame, CA, USA). Fluorescent images were obtained by using a confocal laser scanning microscope (Carl Zeiss Microimaging Inc., Thornwood, NY, USA). The red color indicates the positive fluorescence staining for BK channel KCNMA1, and the blue color represents MDA-MB-231 cell nuclei counter-stained with DAPI [30]. […]

Another test deals with BK channels. On the set-up: method as in PMID 27834847, PMID 14593856. Particulars: cited from earlier work.
Setting [5] is: Homo sapiens, BT-474, MTT, 48 h.

The term IC50 denotes the concentration that gives 50% inhibition. For the compound `C=C(C)[C@H]1O[C@H]2CC[C@@]3(C)[C@@](O)(CC[C@H]4[C@@H]5OC(C)(C)[C@H]6C[C@@H]7C(=C)Cc8ccc9[nH]c(c5c9c8[C@@]76O)[C@@]43C)[C@]23O[C@@H]3[C@H]1O` [Compound 2, Penitrem E], the IC50 was 20.3 µM in the test with MDA-MB-231 cells (Homo sapiens); 67.8 µM in test [2] (Homo sapiens); 36.7 µM in the test on SK-BR-3 cells (Homo sapiens); 31.8 µM with BT-474 cells (setting [5]); 44 µM in [3] (Homo sapiens). Also, the “total levels of BK channel subunits α-1 (KCNMA1)” value in test [1] is recorded as “did not cause changes”. Moreover, the “total levels of TNF-α” value in the test with TNF-α was “increased total levels of TNF-α in both BT-474 and SK-BR-3 cells”.
Regarding `C=C(C)C1OC2CCC3(C)C4(C)c5[nH]c6cc(Cl)c7c8c6c5C(OC(C)(C)C5CC(C(=C)C7)C85O)C4CCC3(O)C23OC3C1OC` (stereo not shown) [Compound 3, 25-O-methylpenitrem A], the IC50 in the test with MDA-MB-231 cells (Homo sapiens) came out at 37.8 µM; in [2] (Homo sapiens), 48.2 µM; in the test on SK-BR-3 cells (Homo sapiens) it was 27.1 µM; in the test with BT-474 cells (setting [5]), 22.4 µM; in test [3] (Homo sapiens), 78.8 µM.
As for `CS(=O)(=O)CCNCc1ccc(-c2ccc3ncnc(Nc4ccc(OCc5cccc(F)c5)c(Cl)c4)c3c2)o1` [LP, lapatinib, reference compound], the 50% inhibitory concentration (IC50) in the test with BT-474 cells (Homo sapiens, BT-474, single agent) is 0.123 µM.
Turning to Penitrem A [Compound 1], the IC50 in the test with MDA-MB-231 cells stood at 9.8 µM; in test [2], 22.6 µM; with SK-BR-3 cells, 15.1 µM; in the test with BT-474 cells (BT-474, MTT, 48 h) it was 10.3 µM; in [3], 33.7 µM. For the same compound, in test [4], the “total levels of KCNMA1 (immunofluorescence)” value is reported as “remarkable reduction”. Moreover, the “total levels of BK channel subunits α-1 (KCNMA1)” value in test [1] is reported as “greatest reduction”. For the same compound, in the test on TNF-α, the “total levels of TNF-α” value was “increased total levels of TNF-α”. Further, the BK channels antagonism entry in the test with BK channels is “potent BK channels antagonist at very low molar concentration”.
